Laboratory results: publication PMC3914206
Where “and” joins values, the source holds several entries; their conditions need not be identical. Identical values can stand only once.

How the values were obtained:
endogenous LRRK2 = type: cell-based; details: EBV immortalized human lymphoblastoid cells, 90 min
[1] = Pharmacokinetics after intravenous and oral delivery in mice; type: in vivo
Experimental: The pharmacokinetic properties of 26 were also evaluated following intravenous and oral delivery in mice.

wild-type LRRK2 = wild-type LRRK2 (Homo sapiens, UniProt Q5S007); assay: LRRK2 cellular assay, Ser910/Ser935 phosphorylation in stably transfected HEK293 cells; details: up to 3 μM, 90 min
Experimental: (§1) Our cellular assay for LRRK2 measures the ability of compounds to inhibit LRRK2-dependent phosphorylation of Ser910 and Ser935 in stably transformed HEK293 cells as described previously [[21,25]].
(§2) As there are no validated direct phosphorylation substrates of LRRK2, we monitored phosphorylation of Ser910 and Ser935, two residues whose phosphorylation is known to be dependent upon LRRK2 kinase activity [25]
(§3) Cell culture, treatments and cell lysis. HEK293 was cultured in DMEM (Dulbecco's Modified Eagle's medium) supplemented with 10% FBS (fetal bovine serum), 2 mM glutamine and 1× penicillin/streptomycin solution. […] Following treatment, cells were washed once with phosphate buffered saline (PBS) buffer and lysed with lysis buffer (50 mM Tris/HCl, pH 7.5, 1 mM EGTA, 1 mM EDTA, 1 mM sodium orthovanadate, 10 mM sodium β-glycerophosphate, 50 mM NaF, 5 mM sodium pyrophosphate, 0.27 M sucrose, 1 mM benzamidine, 2 mM phenylmethanesulphonylfluoride (PMSF) and 1% Triton X-100). When not used immediately, all lysate supernatants were snap-frozen in liquid nitrogen and stored at −80 °C until use. Protein concentrations were determined following centrifugation of the lysate at 16,000× g at 4 °C for 20 min using the Bradford method with BSA as the standard. Transient transfection of HEK 293 cells was performed using the polyethyleneimine (PEI) method [35]. […]

ERK5 = ERK5 (Homo sapiens, UniProt Q13164); assay: ERK5 kinase activity in vitro assay (32P-ATP, PIMtide substrate); type: biochemical; parameters: hexahistidine (His6) (N); made in house; host or cells: Spodoptera frugiperda 21 cells (baculovirus, Bac-to-Bac); details: in vitro assay, recombinant active ERK5; read-out: Enzymatic IC50 (ERK5)
Experimental: pFastBAC vector encoding N-terminal hexahistidine-tagged human ERK5 and HA-tagged human MEK5-DD (constitutively active) were used to generate recombinant baculovirus using the Bac-to-Bac system (Invitrogen). […] His-tagged ERK5 was purified as described for His-tagged BRSK1[33], using 5 mL Ni-NTA-agarose resin (Qiagen) followed by gel filtration chromatography on Superdex 200HR column on an AKTA system (GE Healthcare).
Assays were carried out for 20 min at 30 °C, terminated by applying the reaction mixture onto p81 paper and the incorporated radioactivity measured as described previously.

LRRK2[A2016T] = LRRK2[A2016T] (Homo sapiens, UniProt Q5S007, A2016T); assay: LRRK2 cellular assay, Ser910/Ser935 phosphorylation in stably transfected HEK293 cells; details: drug-resistant mutant, up to 3 μM
Chain of LRRK2[A2016T] (Q5S007 whole entry A2016T): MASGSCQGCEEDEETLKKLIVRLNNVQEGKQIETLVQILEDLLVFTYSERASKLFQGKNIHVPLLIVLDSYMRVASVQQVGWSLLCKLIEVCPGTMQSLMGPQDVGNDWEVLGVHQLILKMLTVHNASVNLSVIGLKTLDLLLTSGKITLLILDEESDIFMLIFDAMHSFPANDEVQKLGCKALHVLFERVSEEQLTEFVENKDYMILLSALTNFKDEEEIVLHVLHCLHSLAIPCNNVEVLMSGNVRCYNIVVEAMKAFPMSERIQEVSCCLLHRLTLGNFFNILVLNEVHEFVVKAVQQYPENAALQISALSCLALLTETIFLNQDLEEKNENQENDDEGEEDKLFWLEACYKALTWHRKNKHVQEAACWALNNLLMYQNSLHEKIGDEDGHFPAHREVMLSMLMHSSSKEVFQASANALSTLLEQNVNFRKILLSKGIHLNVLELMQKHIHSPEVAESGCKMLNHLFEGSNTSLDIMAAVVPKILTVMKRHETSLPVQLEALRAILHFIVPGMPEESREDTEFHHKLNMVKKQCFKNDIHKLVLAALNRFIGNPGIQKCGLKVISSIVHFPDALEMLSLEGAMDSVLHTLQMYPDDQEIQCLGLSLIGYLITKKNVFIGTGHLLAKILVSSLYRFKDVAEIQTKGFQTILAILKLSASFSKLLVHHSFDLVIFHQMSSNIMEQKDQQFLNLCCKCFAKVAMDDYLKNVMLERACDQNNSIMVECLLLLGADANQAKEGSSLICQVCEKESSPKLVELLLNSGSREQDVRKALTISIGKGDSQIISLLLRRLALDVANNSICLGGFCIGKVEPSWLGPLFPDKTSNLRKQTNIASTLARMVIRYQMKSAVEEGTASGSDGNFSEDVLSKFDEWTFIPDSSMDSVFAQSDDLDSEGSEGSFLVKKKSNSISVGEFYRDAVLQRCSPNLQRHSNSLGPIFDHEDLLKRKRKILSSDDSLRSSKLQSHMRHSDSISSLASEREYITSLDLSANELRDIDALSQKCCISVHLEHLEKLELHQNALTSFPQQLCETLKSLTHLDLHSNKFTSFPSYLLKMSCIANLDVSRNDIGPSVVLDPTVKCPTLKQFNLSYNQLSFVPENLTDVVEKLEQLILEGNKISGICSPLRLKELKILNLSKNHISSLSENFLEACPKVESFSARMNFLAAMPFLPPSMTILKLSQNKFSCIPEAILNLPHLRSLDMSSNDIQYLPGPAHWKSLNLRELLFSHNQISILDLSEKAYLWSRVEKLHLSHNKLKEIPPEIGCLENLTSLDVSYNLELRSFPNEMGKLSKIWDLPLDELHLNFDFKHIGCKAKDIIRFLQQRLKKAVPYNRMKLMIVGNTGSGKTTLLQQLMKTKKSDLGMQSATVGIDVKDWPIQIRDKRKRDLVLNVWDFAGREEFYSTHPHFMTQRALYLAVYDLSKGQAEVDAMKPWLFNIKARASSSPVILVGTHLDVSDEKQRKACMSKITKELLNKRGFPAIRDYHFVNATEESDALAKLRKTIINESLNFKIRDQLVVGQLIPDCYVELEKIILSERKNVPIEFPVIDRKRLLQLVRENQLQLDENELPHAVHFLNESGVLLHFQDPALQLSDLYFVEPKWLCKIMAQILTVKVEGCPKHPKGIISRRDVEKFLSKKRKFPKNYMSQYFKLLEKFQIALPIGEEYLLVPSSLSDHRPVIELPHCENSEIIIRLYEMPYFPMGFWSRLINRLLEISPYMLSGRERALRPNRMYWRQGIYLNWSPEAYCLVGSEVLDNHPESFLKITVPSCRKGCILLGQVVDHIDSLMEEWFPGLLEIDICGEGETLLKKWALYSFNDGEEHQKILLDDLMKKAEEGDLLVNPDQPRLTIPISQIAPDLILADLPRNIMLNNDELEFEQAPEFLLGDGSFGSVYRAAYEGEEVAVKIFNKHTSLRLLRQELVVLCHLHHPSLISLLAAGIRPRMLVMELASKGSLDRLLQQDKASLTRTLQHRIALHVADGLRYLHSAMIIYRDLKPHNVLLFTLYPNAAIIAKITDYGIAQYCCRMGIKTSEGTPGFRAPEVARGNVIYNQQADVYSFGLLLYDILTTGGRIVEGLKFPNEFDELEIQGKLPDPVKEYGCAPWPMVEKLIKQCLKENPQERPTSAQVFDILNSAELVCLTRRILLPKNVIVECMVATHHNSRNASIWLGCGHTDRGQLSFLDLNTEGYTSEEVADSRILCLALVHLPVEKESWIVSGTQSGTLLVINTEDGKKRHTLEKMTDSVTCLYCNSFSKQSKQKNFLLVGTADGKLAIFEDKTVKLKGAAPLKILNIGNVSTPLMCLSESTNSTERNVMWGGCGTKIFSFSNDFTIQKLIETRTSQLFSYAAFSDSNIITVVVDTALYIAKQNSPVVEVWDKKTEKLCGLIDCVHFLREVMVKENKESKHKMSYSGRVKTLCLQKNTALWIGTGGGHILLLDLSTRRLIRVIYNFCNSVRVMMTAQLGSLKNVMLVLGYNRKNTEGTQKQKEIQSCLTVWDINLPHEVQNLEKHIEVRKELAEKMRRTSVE
Experimental: as §1, §2, §3

Chain of ERK5 (Q13164 whole entry): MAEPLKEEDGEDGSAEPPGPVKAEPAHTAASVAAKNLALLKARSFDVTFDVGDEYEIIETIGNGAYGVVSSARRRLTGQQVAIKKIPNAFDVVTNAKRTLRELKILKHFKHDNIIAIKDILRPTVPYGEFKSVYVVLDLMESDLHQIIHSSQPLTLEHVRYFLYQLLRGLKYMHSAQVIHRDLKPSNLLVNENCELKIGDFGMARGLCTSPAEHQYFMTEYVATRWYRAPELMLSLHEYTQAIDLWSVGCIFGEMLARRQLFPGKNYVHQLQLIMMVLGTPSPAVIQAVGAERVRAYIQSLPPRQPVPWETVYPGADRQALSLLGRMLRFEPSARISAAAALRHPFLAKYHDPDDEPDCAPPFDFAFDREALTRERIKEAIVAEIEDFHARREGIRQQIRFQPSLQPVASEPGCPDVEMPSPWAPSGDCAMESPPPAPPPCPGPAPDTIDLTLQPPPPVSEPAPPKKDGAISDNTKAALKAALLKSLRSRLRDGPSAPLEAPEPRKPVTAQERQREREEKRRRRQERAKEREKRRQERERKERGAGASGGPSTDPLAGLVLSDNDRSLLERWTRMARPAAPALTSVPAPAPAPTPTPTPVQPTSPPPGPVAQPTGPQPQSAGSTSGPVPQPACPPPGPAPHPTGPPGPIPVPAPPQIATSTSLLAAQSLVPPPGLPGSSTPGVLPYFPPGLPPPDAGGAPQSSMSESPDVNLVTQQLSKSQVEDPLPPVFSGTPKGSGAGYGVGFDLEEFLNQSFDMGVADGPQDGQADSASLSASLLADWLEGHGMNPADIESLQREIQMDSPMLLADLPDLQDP
Chain of wild-type LRRK2 (Q5S007 whole entry): as the sequence (Q5S007 whole entry A2016T) above, with T2016A counted along it

**Q.** What does the source list for CCOc1cc(C(=O)N2CCC(N3CCN(C)CC3)CC2)ccc1Nc1ncc2c(n1)N(C1CCCC1)c1ccccc1C(=O)N2C [Compound 26]?
**A.** effect on phosphorylation of endogenous LRRK2 at Ser910 and Ser935 (endogenous LRRK2): did not show inhibitory effects; AUC0−∞ ([1]; IV, 1 mg/kg): 1743.83 ng·h/mL; CL ([1]; IV, 1 mg/kg): 8.64 mL/min/kg; Cmax ([1]; IV, 1 mg/kg): 439 ng/mL; T1/2 ([1]; IV, 1 mg/kg): 8.2 h; Vss ([1]; IV, 1 mg/kg): 4.67 L/kg; AUC0−∞ ([1]; PO, 10 mg/kg): 15745 ng·h/mL and 15745.48 ng·h/mL; Cmax ([1]; PO, 10 mg/kg): 1142.77 ng/mL; F (oral bioavailability) ([1]; PO, 10 mg/kg): 90%; Tmax ([1]; PO, 10 mg/kg): 4.0 H; inhibitory effect against LRRK2 in cells (Ser910/Ser935 phosphorylation) (wild-type LRRK2): did not show any inhibitory effect

**Q.** With COc1cc(C(=O)N2CCC(N3CCN(C)CC3)CC2)ccc1Nc1ncc2c(n1)N1CCc3cccc(c31)C(=O)N2C [Compound 24] as the compound, how does the IC50 (ERK5) read?
**A.** 199 ± 12 nM

**Q.** What about the “effect on phosphorylation of Ser910 and Ser935” value (LRRK2[A2016T]) of the same compound?
**A.** no effect

**Q.** With COc1cc(C(=O)N2CCC(N3CCN(C)CC3)CC2)ccc1Nc1ncc2c(n1)N(C1CCCC1)c1ccccc1C(=O)N2C [Compound 25, 11-cyclopentyl-2-((2-methoxy-4-(4-(4-methylpiperazin-1-yl)piperidine-1-carbonyl)phenyl)amino)-5-methyl-5H-benzo[e]pyrimido[5,4-b][1,4]diazepin-6(11H)-one] as the compound, how does the IC50 (ERK5) read?
**A.** 82 ± 9 nM
